As usually defined, the IC50 is the midpoint of a concentration-inhibition curve.

IC50 data for 8 molecules are collected here from patent publication US20240299387A1, “HETEROCYCLIC EGFR INHIBITORS FOR USE IN THE TREATMENT OF CANCER” (Blueprint Medicines Corporation, priority 2021, published 2024).

Assay [1] has as its target T1, EGFR L858R T790M in NCI-H1975 cell line (Homo sapiens, UniProt P00533, L858R/T790M).
T1 construct: host or cells: NCI-H1975
Kind of assay: NCI-H1975 pEGFR AlphaLISA assay. The class given is cell-based. As to conditions: NCI-H1975 cells (EGFR L858R T790M), p-EGFR (Tyr1068), 4-5 hours incubation; read-out: Ext pEGFR H1975 GMean IC50 (nM) Protocol: @Pharmaron AlphaLISA (Num). On the procedure: The NCI-H1975 cells were seeded at 12.5K/well in 22 μL into 384 well opti plate (PerkinElmer, 6007299) and adhering overnight at 37C/5% CO2. On the next day, the test compounds and DMSO control were added into H1975 cell plate followed by incubation at 37C/5% CO2 for 4-5 hours. […] Then 5 μL of a donor bead mix was added to each well followed by overnight incubation at room temperature in dark. On the next day, the plate was read at a compatible plate reader to obtain pEGFR signal. Percent of pEGFR inhibition was plotted against log concentration of compounds to generate IC50 values.
(In general: In Alpha technology, singlet oxygen from a donor bead excites a nearby acceptor bead.)

The next assay has as its target T2, EGFR (L858R T790M C797S) (Homo sapiens, UniProt P00533, C797S/L858R/T790M).
T2 construct: purchased SignalChem E10-122VG
The assay can be described thus: Biochemical EGFR inhibition assay (Caliper mobility shift), EGFR LRTMCS mutant. The following applies: LRTMCS (PH) IC50 (nM) @ 1 mM ATP (Num). As for the experimental part: Reactions proceeded until between 10% to 20% total peptides were phosphorylated at room temperature (25° C.) and were terminated with 35 mM 2,2′,2″,2′″-(ethane-1,2-diyldinitrilo)tetraacetic acid (EDTA). Product was detected using the Caliper mobility shift detection method where the phosphorylated peptide (product) and substrate were electrophoretically separated and measured. Percent activity was plotted against log concentration of compound and points to generate an apparent IC50.

T1 sequence (P00533 25-1210 T790M/L858R): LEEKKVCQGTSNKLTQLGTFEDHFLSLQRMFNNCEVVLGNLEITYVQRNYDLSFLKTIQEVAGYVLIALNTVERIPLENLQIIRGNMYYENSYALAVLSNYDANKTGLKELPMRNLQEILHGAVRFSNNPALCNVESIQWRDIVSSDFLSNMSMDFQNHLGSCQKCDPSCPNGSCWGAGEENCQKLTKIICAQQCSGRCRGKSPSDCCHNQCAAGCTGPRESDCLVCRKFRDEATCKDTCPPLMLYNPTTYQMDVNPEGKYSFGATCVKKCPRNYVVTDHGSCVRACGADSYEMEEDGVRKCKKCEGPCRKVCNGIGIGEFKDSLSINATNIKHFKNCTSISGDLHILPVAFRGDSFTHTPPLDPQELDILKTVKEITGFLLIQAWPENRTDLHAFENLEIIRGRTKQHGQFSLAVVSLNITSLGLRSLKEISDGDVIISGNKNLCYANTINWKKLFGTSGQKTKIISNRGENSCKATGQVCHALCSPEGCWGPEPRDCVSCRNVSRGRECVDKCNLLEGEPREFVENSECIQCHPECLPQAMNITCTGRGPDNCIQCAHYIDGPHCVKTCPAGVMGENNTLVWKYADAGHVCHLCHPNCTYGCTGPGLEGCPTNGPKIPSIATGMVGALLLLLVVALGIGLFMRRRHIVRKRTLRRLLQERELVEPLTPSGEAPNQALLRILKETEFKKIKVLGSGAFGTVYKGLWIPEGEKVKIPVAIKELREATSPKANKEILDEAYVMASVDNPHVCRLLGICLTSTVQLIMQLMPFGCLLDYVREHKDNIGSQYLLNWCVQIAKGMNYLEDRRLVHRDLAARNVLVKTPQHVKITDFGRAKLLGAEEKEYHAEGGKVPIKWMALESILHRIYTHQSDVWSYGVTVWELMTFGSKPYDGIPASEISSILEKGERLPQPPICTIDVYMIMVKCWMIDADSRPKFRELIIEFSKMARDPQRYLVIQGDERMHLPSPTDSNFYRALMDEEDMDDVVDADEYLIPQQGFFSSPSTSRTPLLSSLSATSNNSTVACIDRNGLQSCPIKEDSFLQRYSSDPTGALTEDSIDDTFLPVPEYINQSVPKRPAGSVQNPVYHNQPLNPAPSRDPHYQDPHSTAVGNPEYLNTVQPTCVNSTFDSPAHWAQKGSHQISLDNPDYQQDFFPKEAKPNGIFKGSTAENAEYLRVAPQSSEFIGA
T2 sequence (P00533 25-1210 T790M/C797S/L858R): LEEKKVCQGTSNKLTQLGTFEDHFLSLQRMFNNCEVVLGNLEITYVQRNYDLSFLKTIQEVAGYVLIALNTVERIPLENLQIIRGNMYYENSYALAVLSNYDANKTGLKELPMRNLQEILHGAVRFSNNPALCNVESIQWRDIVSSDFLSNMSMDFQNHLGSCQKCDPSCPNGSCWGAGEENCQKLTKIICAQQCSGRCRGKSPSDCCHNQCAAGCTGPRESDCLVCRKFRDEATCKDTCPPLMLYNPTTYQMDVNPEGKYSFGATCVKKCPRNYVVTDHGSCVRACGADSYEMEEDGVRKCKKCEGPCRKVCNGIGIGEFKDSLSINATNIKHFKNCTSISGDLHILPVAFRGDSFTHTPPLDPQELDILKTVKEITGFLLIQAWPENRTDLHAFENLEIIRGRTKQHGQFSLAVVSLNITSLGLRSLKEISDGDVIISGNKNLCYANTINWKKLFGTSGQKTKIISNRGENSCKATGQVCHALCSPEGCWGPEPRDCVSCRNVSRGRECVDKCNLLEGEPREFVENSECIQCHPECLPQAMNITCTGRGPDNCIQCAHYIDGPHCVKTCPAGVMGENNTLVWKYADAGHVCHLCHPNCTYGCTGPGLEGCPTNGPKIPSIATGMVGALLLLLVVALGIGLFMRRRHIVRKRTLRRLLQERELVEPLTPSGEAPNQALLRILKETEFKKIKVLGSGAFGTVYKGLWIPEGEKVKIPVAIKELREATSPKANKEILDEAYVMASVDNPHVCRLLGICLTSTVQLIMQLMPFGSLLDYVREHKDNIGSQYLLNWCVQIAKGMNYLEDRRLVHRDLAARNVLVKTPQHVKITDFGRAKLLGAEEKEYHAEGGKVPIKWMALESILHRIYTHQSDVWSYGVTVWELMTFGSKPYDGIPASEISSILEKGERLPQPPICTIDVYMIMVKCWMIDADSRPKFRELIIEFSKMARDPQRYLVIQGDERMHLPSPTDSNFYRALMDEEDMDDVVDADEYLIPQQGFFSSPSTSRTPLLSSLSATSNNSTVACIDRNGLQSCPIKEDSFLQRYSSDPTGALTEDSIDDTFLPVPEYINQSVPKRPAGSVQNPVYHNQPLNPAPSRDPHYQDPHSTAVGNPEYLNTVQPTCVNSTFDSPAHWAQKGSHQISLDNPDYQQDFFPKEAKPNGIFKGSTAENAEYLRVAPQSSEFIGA

With `[2H]C([2H])([2H])O[C@@H]1CCN(c2nccc(Nc3cc4c(C(C)C)ccc(OCCn5cnnc5)c4cn3)n2)C[C@@H]1F` [Example 45, 8-(2-(4H-1,2,4-triazol-4-yl)ethoxy)-N-(2-((3S,4R)-3-fluoro-4-(methoxy-d3)piperidin-1-yl)pyrimidin-4-yl)-5-isopropylisoquinolin-3-amine], the values for the IC50 (in assay [1]; on EGFR (L858R T790M C797S)) were greater than 50 nM and 15 to 20 nM, respectively.

Take `CC(=O)N1CC([C@@H](C)Oc2ccc(C(C)C)c3cc(Nc4ccnc(N5CC[C@@H](O)[C@@](C)(F)C5)n4)ncc23)C1` (single isomer, unassigned) [Example 24, 1-(3-((R)-1-((3-((2-((3S,4R)-3-fluoro-4-hydroxy-3-methylpiperidin-1-yl)pyrimidin-4-yl)amino)-5-isopropylisoquinolin-8-yl)oxy)ethyl)azetidin-1-yl)ethan-1-one or 1-(3-((S)-1-((3-((2-((3S,4R)-3-fluoro-4-hydroxy-3-methylpiperidin-1-yl)pyrimidin-4-yl)amino)-5-isopropylisoquinolin-8-yl)oxy)ethyl)azetidin-1-yl)ethan-1-one]: the IC50 was less than 10 nM in assay [1] and less than 15 nM on EGFR (L858R T790M C797S).

In the case of `CC(C)c1cnc(C(=O)NCC(F)F)c2cnc(Nc3ccnc(N4CC[C@@H](O)[C@@](C)(F)C4)n3)cc12` [Example 67, N-(2,2-difluoroethyl)-6-((2-((3S,4R)-3-fluoro-4-hydroxy-3-methylpiperidin-1-yl)pyrimidin-4-yl)amino)-4-isopropyl-2,7-naphthyridine-1-carboxamide], the IC50 in assay [1] was greater than 50 nM; at EGFR (L858R T790M C797S), less than 15 nM.

On to `CC(=O)N1CC(COc2ccc(C(C)C)c3cc(Nc4ccnc(N5CCC(C)(O)CC5)n4)ncc23)C1` [Example 14, 1-(3-(((3-((2-(4-hydroxy-4-methylpiperidin-1-yl)pyrimidin-4-yl)amino)-5-isopropylisoquinolin-8-yl)oxy)methyl)azetidin-1-yl)ethanone], for which the IC50 was greater than 50 nM in assay [1] and 20 to 30 nM at EGFR (L858R T790M C797S).

With `CC(C)c1cnc(C(=O)N[C@H]2C[C@@](C)(O)C2)c2cnc(Nc3ccnc(N4CC[C@@H](O)[C@@](C)(F)C4)n3)cc12` [Example 83, 6-((2-((3S,4R)-3-fluoro-4-hydroxy-3-methylpiperidin-1-yl)pyrimidin-4-yl)amino)-N-((1s,3s)-3-hydroxy-3-methylcyclobutyl)-4-isopropyl-2,7-naphthyridine-1-carboxamide], the IC50 in assay [1] was 30 to 50 nM; on EGFR (L858R T790M C797S), less than 15 nM.

On to `CC(=O)N1CC(COc2ccc(C(C)C)c3cc(Nc4ccnc(N5CC[C@@H](O)[C@@](C)(F)C5)n4)ncc23)C1` [Example 8, 1-(3-(((3-((2-((3S,4R)-3-fluoro-4-hydroxy-3-methylpiperidin-1-yl)pyrimidin-4-yl)amino)-5-isopropylisoquinolin-8-yl)oxy)methyl)azetidin-1-yl)ethan-1-one], for which the IC50 in assay [1] is less than 10 nM; on EGFR (L858R T790M C797S), less than 15 nM.

Take `CC(C)c1cnc(C(=O)NC2CCOCC2)c2cnc(Nc3ccnc(N4CC[C@@H](O)[C@@](C)(F)C4)n3)cc12` [Example 78, 6-((2-((3S,4R)-3-fluoro-4-hydroxy-3-methylpiperidin-1-yl)pyrimidin-4-yl)amino)-4-isopropyl-N-(tetrahydro-2H-pyran-4-yl)-2,7-naphthyridine-1-carboxamide]: the figures for the IC50 (in assay [1]; at EGFR (L858R T790M C797S)) were 30 to 50 nM and 15 to 20 nM, respectively.

Regarding `CC(C)c1ccc(OC[C@@H]2CCC(=O)N2C)c2cnc(Nc3ccnc(N4CC[C@](C)(O)[C@H](F)C4)n3)cc12` [Example 33, (S)-5-(((3-((2-((3R,4S)-3-fluoro-4-hydroxy-4-methylpiperidin-1-yl)pyrimidin-4-yl)amino)-5-isopropylisoquinolin-8-yl)oxy)methyl)-1-methylpyrrolidin-2-one], the values for the IC50 (in assay [1]; at EGFR (L858R T790M C797S)) were 30 to 50 nM and 15 to 20 nM, respectively.
